Assay results published in patent US20100056507A1, “PHENYL DERIVATIVES AND THEIR USE AS A MEDICAMENT” (IPSEN PHARMA S.A.S., priority 2006, published 2010).
Structures can show the parent of a compound that is named as a salt. Where two headings read alike, the source gives them in different places.

Target: T1, human CB2 receptors (Homo sapiens, UniProt P34972)
T1 construct: expressed in transfected cells; membranes used
Test: Affinity for the human CB2 cannabinoid receptors: inhibition of [3H]-CP55940 binding to transfected CHO-K1 cell membranes
Conditions: [3H]-CP55940 1 nM, CHO-K1 membranes expressing human CB2, Cheng-Prusoff correction
Protocol: The affinity of the compounds of the invention for the human CB2 receptors is determined by measuring the inhibition of the binding of [^3H]-CP55940 to transfected CHO-K1 cell membrane preparations.
The cells are collected with 0.5 mM of EDTA and centrifuged at 500 g for 5 minutes at 4° C. The pellet is re-suspended in phosphate buffered saline medium (PBS) and centrifuged at 500 g for 5 minutes at 4° C. The pellet is re-suspended in a Tris 50 mM buffer medium at pH 7.4 and centrifuged at 500 g for 5 minutes at 4° C. The cells are lysed by sonication and centrifuged at 39,000 g for 10 minutes at 4° C. The pellet is re-suspended in the Tris 50 mM buffer medium at pH 7.4 and centrifuged at 50,000 g for 10 minutes at 4° C. The membranes obtained in this last pellet are stored at −80° C.
Measurement of the competitive inhibition of the binding of the [^3H]-CP55940 to the CB2 receptors is carried out in duplicate using 96-well polypropylene plates. The cell membranes (10 μg of proteins/well) are incubated with the [^3H]-CP55940 (1 nM) for 60 minutes at 25° C. in a Tris-HCl 50 mM buffer medium, pH 7.4, comprising 0.1% bovine serum albumin (BSA), 5 mM of MgCl2, and 50 μg/ml of bacitracin.
The filters are washed with Tris-HCl 50 mM buffer, pH 7.4 at 0-4° C. and the radioactivity present is determined using a counter (Packard Top Count).
The specific binding is obtained by subtracting the non-specific binding (determined in the presence of 0.1 μM of WIN55212-2 from the total binding). The data are analyzed by computer-assisted non-linear regression (MDL). For each test, a Cheng-Prusoff correction is made in order to convert the IC50 to the inhibition constant, Ki.
where [L] is the concentration of the radioligand used in the test and Kd is the radioligand equilibrium disassociation constant.

T1 sequence (P34972 whole entry): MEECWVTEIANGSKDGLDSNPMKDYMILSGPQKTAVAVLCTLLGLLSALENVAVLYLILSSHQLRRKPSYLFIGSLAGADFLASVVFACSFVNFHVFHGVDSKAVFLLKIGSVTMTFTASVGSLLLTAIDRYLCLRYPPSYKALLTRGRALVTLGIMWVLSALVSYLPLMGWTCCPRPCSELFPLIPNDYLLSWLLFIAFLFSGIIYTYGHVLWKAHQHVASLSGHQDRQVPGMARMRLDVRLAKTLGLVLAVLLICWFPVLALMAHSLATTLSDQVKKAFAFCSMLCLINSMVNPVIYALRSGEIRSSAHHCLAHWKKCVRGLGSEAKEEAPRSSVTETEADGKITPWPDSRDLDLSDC

Ki (read-out: Ki < 0.5 μM) [µM] | Ki (read-out: Ki < 5 μM) [µM] | SMILES
< 0.5 | < 5 | CC1(C)CCC(C)(C)c2cc(C(=O)OCCc3ccc(NC(=O)C4CCC4)cc3)ccc21 [Example 1, 2-{4-[(cyclobutylcarbonyl)amino]phenyl}ethyl 5,5,8,8-tetramethyl-5,6,7,8-tetrahydronaphthalene-2-carboxylate]
< 0.5 | < 5 | CC1(C)CCC(C)(C)c2cc(C(=O)OCc3ccc(C(=O)NC4CCC4)cc3)ccc21 [Example 3]
 | < 5 | O=C(OCCc1ccc(NC(=O)C2CCC2)cc1)c1ccc2c(c1)OCCO2 [Example 4]
 | < 5 | O=C(OCCc1ccc(NC(=O)C2CCC2)cc1)c1ccc2c(c1)C(=O)CCC2 [Example 7]
< 0.5 | < 5 | CN1CCOc2cc(C(=O)OCCc3ccc(NC(=O)C4CCC4)cc3)ccc21 [Example 10]
< 0.5 | < 5 | O=C(OCCc1ccc(NC(=O)C2CCC2)cc1)c1ccc2c(c1)CCC2 [Example 11]
< 0.5 | < 5 | CC(C)(C)c1cc(-c2nnc(Cc3ccc(NC(=O)C4CCC4)cc3)o2)cc(C(C)(C)C)c1 [Example 12]
< 0.5 | < 5 | O=C(OCCc1ccc(NC(=O)C2CCC2)cc1)c1ccc2c(c1)CCCC2 [Example 15]
< 0.5 | < 5 | CC(C)(C)c1cc(-c2nnc(CCc3ccc(NC(=O)C4CCC4)cc3)o2)cc(C(C)(C)C)c1 [Example 16]
< 0.5 | < 5 | CC(C)(C)c1cc(-c2nc(Cc3ccc(NC(=O)C4CCC4)cc3)no2)cc(C(C)(C)C)c1 [Example 19]
 | < 5 | CC(C)(C)c1cc(-c2nnc(NCc3ccc(NC(=O)C4CCC4)cc3)o2)cc(C(C)(C)C)c1 [Example 23]
< 0.5 | < 5 | CCCNC(=O)Nc1ccc(CCOC(=O)c2ccc3c(c2)C(C)(C)CCC3(C)C)cc1 [Example 29, 2-(4-{[(propylamino)carbonyl]amino}phenyl)ethyl 5,5,8,8-tetramethyl-5,6,7,8-tetrahydronaphthalene-2-carboxylate]
< 0.5 | < 5 | C=CCNC(=O)Nc1ccc(CCOC(=O)c2ccc3c(c2)C(C)(C)CCC3(C)C)cc1 [Example 30]
 | < 5 | O=C(OCCc1ccc(NC(=O)C2CCC2)cc1)c1ccc2c(c1)OCO2 [Example 34]
< 0.5 | < 5 | Cc1cc2c(cc1C(=O)OCCc1ccc(NC(=O)C3CCC3)cc1)C(C)(C)CCC2 [Example 35]
< 0.5 | < 5 | Cc1cc2c(cc1C(=O)OCCc1ccc(NC(=O)C3CCC3)cc1)CCCC2(C)C [Example 36]
< 0.5 | < 5 | CC1(C)CC(C)(C)c2cc(C(=O)OCCc3ccc(NC(=O)C4CCC4)cc3)ccc21 [Example 37]
 | < 5 | O=C(OCCc1ccc(NC(=O)C2CCC2)cc1)c1ccc2c(c1)C(=O)CC2 [Example 38]
< 0.5 | < 5 | CC1(C)CCc2cc(C(=O)OCCc3ccc(NC(=O)C4CCC4)cc3)ccc2O1 [Example 42]
< 0.5 | < 5 | Cc1cc2c(cc1C(=O)OCCc1ccc(NC(=O)C3CCC3)cc1)C(C)(C)CC(C)C2(C)C (stereo not shown) [Example 45]
< 0.5 | < 5 | CC(C)(C)c1cc(-c2nnc(CCc3ccc(NC(=O)C4CCC4)cc3)s2)cc(C(C)(C)C)c1 [Example 46]

Further lines, the compound ahead of its results:

SMILES | Ki (read-out: Ki < 0.5 μM) [µM] | Ki (read-out: Ki < 5 μM) [µM]
CC(C)(C)c1cc(-c2nnc(Cc3ccc(/N=C(/N)c4cccs4)cc3)o2)cc(C(C)(C)C)c1 [Example 2] | < 0.5 | < 5
CC(C)(C)c1cc(-c2nc(Cc3ccc(/N=C(/N)c4cccs4)cc3)no2)cc(C(C)(C)C)c1 [Example 5] | < 0.5 | < 5
CC1(C)CCC(C)(C)c2cc(-c3nnc(CCc4ccc(/N=C(/N)c5cccs5)cc4)o3)ccc21 [Example 6, N′-(4-{2-[5-(5,5,8,8-tetramethyl-5,6,7,8-tetrahydronaphthalen-2-yl)-1,3,4-oxadiazol-2-yl]ethyl}phenyl)thiophene-2-carboximidamide hydrochloride] |  | < 5
C=CCNC(=O)Nc1ccc(Cc2nnc(-c3cc(C(C)(C)C)cc(C(C)(C)C)c3)o2)cc1 [Example 13] | < 0.5 | < 5
CCCNC(=O)Nc1ccc(Cc2nnc(-c3cc(C(C)(C)C)cc(C(C)(C)C)c3)o2)cc1 [Example 14] | < 0.5 | < 5
C=CCNC(=O)Nc1ccc(CCc2nnc(-c3cc(C(C)(C)C)cc(C(C)(C)C)c3)o2)cc1 [Example 17] | < 0.5 | < 5
CCCNC(=O)Nc1ccc(CCc2nnc(-c3cc(C(C)(C)C)cc(C(C)(C)C)c3)o2)cc1 [Example 18] | < 0.5 | < 5
C=CCNC(=O)Nc1ccc(Cc2noc(-c3cc(C(C)(C)C)cc(C(C)(C)C)c3)n2)cc1 [Example 20] | < 0.5 | < 5
CCCNC(=O)Nc1ccc(Cc2noc(-c3cc(C(C)(C)C)cc(C(C)(C)C)c3)n2)cc1 [Example 21] | < 0.5 | < 5
CC(C)(C)c1cc(-c2nnc(CCc3ccc(/N=C(/N)c4cccs4)cc3)o2)cc(C(C)(C)C)c1 [Example 22] | < 0.5 | < 5
C=CCNC(=O)Nc1ccc(CNc2nnc(-c3cc(C(C)(C)C)cc(C(C)(C)C)c3)o2)cc1 [Example 24] | < 0.5 | < 5
CC1(C)CCC(C)(C)c2cc(-c3nnc(NCc4ccc(NC(=O)C5CCC5)cc4)o3)ccc21 [Example 25] | < 0.5 | < 5
C=CCNC(=O)Nc1ccc(CNc2nnc(-c3ccc4c(c3)C(C)(C)CCC4(C)C)o2)cc1 [Example 26] | < 0.5 | < 5
CC(C)(C)c1cc(-c2nnc(NCc3ccc(/N=C(/N)c4cccs4)cc3)o2)cc(C(C)(C)C)c1 [Example 27] | < 0.5 | < 5
CC1(C)CCC(C)(C)c2cc(-c3nnc(NCc4ccc(/N=C(/N)c5cccs5)cc4)o3)ccc21 [Example 28] |  | < 5
CC1(C)CCC(C)(C)c2cc(-c3nnc(CCc4ccc(NC(=O)C5CCC5)cc4)o3)ccc21 [Example 31] | < 0.5 | < 5
C=CCNC(=O)Nc1ccc(CCc2nnc(-c3ccc4c(c3)C(C)(C)CCC4(C)C)o2)cc1 [Example 32] | < 0.5 | < 5
CCCNC(=O)Nc1ccc(CCc2nnc(-c3ccc4c(c3)C(C)(C)CCC4(C)C)o2)cc1 [Example 33] | < 0.5 | < 5
CC1(C)CCC(C)(C)c2cc(-c3coc(CCc4ccc(NC(=O)C5CCC5)cc4)n3)ccc21 [Example 39, N-(4-{2-[4-(5,5,8,8-tetramethyl-5,6,7,8-tetrahydronaphthalen-2-yl)-1,3-oxazol-2-yl]ethyl}phenyl)cyclobutanecarboxamide] | < 0.5 | < 5
C=CCNC(=O)Nc1ccc(CCc2nc(-c3ccc4c(c3)C(C)(C)CCC4(C)C)co2)cc1 [Example 40] | < 0.5 | < 5
CCCNC(=O)Nc1ccc(CCc2nc(-c3ccc4c(c3)C(C)(C)CCC4(C)C)co2)cc1 [Example 41] | < 0.5 | < 5
C=CCNC(=O)Nc1ccc(CCc2nnc(-c3cc(C(C)(C)C)cc(C(C)(C)C)c3)s2)cc1 [Example 47] | < 0.5 | < 5
